US20240285623A1, “TRPA1 CHANNEL ANTAGONIST COMPOUND FOR USE IN DEGENERATIVE RETINAL DISEASES” (FLONEXT S.R.L., priority 2021, published 2024)

Assays:
[1] = test system: RPE layer (retinal pigmented epithelium); assay: Immunofluorescence (RPE65) for assessing damage of the retinal pigment epithelium in the NalO3-induced mouse model of macular degeneration; type: in vivo, C57BL/6J male mice; conditions: for protection of the retina from NalO3-induced damage of the cells of the RPE layer (in words): NalO3 mouse model, eye drops; for reduction of the NalO3-induced damage on the RPE layer compared to V2 (RPE65 staining intensity): eye drops 5 μl of 10 mM solution, 60 min before NalO3 (20 mg/kg, retro-orbital vein) then 3 times a day, retina collected day 4, mean±SEM, P<0.01 vs. V2/NalO3
Procedure: (§1) To create a valid model of macular degeneration, the systemic administration (via the retro-orbital vein) of NalO3 was carried out in C57BL/6J male mice aged 5-8 weeks and weighing 22-25 g supplied by the Charles River company (Milan, Italy). In order to carry out the experiments described below, a total of 36 mice were used. The animals were kept in a temperature and humidity-controlled environment (12-hour dark/light cycle, free access to food and water). The experiments were performed in a temperature-controlled room (20 to 22° C.) between 8:00 and 20:00. At the end of the experiment, the animals were euthanized by inhalation of a mixture of 50% O2/50% CO2 for 1 minute. The NalO3, DMSO, Tween 80 and NaCl 0.9% reagents used in the study were purchased from Merck Life Science SRL (Milan, Italy).
(§2) The mice were administered locally, through eye drops, the compounds indicated above or their vehicle consisting of 4% DMSO, 4% Tween 80 in 0.9% NaCl.
(§3) In particular, a group of 6 mice (used as a control) was administered by instillation, 60 minutes before the injection into the retro-orbital vein (1 ml/kg) of the vehicle (V1) (NaCl, 0.9%) of NalO3 and subsequently 3 times a day, eye drops (5 μl) containing the vehicle (V2) (4% DMSO, 4% Tween 80 in NaCl 0.9%) of the drugs.
(§4) Another 30 mice received, in groups of 6 mice each, 60 minutes before the injection into the retro-orbital vein (1 ml/kg) of NalO3 (1%, 20 mg/kg) and subsequently 3 times a day, eye drops (5 μl) of a 10 mM solution of the above-mentioned compounds FN-005, FN-006, FN-007, FN-008 or their vehicle (V2) (4% DMSO, 4% Tween 80 in 0.9% NaCl) by instillation.
(§5) For each group of mice, the first administration (day 1) of the compound of formula (IV), of the compound of formula (I), of the compound of formula (II) and of the compound of formula (III) or of the vehicle (V2) was performed 60 minutes before the injection of NalO3 or its vehicle (V1) and the second and third administration were performed 6 and 12 hours after the injection of vehicle (V1) or NalO3, respectively. On the two days (day 2 and day 3) following the injection of vehicle (V1) or NalO3, the compounds of formula (IV), (I), (II), and (III) or vehicle (V2) were administered to the various groups of mice at 8:00, 14:00 and 20:00.
(§6) At 09:00 on day 4 after the treatment with vehicle (V1) or NalO3 the mice given the compounds indicated above as FN-005, FN-006, FN-007, FN-008 or their vehicle (V2) were sacrificed (as previously reported) and the eyeballs were enucleated and processed for subsequent analysis of the damage.
Direct immunofluorescence was used to assess damage to the RPE (retinal pigmented epithelium), which corresponds to the layer of pigmented cells immediately adjacent to the neurosensory retina which nourishes the visual cells of the retina, and is firmly attached to the underlying choroid and the overlying visual retinal cells.
The staining intensity of the RPE layer was quantified using a primary antibody (RPE65, #ab13826, mouse monoclonal, 1:100, Abcam, Cambridge, UK) to which a second fluorophore-labelled antibody (Alexa Fluor 488, #A28175, Thermo Fisher Scientific) binds in the 6 groups of mice treated with V2/V1, V2/NalO3, with the compound of formula (IV) and NalO3 (FN-005/NalO3), with the compound of formula (I) of polycyclic heteroaromatic derivatives and NalO3 (FN-006/NalO3), with the compound of formula (II) and NalO3 (FN-007/NalO3) and with the compound of formula (III) and NalO3 (FN-008/NalO3). Cell nuclei were visualized using the DAPI organic dye (#ab228549, Abcam, Cambridge, UK).
The data relating to the fluorescence intensity value are presented for each treatment as mean±SEM. *p<0.05 vs V1/V2; § p<0.05 vs NalO3 in FIG. 1B. Statistical analysis using one-way analysis of variance (ANOVA) test and Bonferroni test.

4-hydroxynonenal (4-HNE) = assay: Assessment of oxidative stress at the retinal level (4-HNE immunofluorescence) in the NalO3-induced mouse model of macular degeneration; type: in vivo, C57BL/6J male mice; conditions: for protection of the retina from the NalO3-induced increase of 4-HNE (in words): NalO3 mouse model, eye drops; for reduction of the retinal levels of 4-HNE (immunofluorescence): eye drops 5 μl of 10 mM solution, 60 min before NalO3 (20 mg/kg, retro-orbital vein) then 3 times a day, retina collected day 4, mean±SEM, P<0.01 vs. V2/NalO3
Procedure: as §1, §2, §3, §4, §5, §6
The level of oxidative stress was also assessed throughout the thickness of the retina by measuring the immunofluorescence intensity for the reactive carbonyl species, 4-hydroxynonenal (4-HNE), a final indicator of oxidative stress.
Levels of 4-HNE were quantified using a primary antibody (#ab48506, monoclonal mouse [HNEJ-2], 1:40, Abcam, Cambridge, UK) to which a second fluorophore-labelled antibody (Alexa Fluor 594, #A A32742, Thermo Fisher Scientific) binds in the 6 groups of mice treated as described above.
Cell nuclei were visualized using the DAPI organic dye (#ab228549, Abcam, Cambridge, UK).
The data relating to the fluorescence intensity value are presented for each treatment as mean±SEM. *p<0.05 vs V1/V2; § p<0.05 vs NalO3 in FIG. 2B. Statistical analysis using one-way analysis of variance (ANOVA) test and Bonferroni test.

| Structure (SMILES) | protection of the retina from NalO3-induced damage of the cells of the RPE layer (in words) [1] | reduction of the NalO3-induced damage on the RPE layer compared to V2 (RPE65 staining intensity) [1] [%] | protection of the retina from the NalO3-induced increase of 4-HNE (in words) (4-hydroxynonenal (4-HNE)) | reduction of the retinal levels of 4-HNE (immunofluorescence) (4-hydroxynonenal (4-HNE)) [%] |
| --- | --- | --- | --- | --- |
| COCCCOc1cccc([C@H]2NC(=S)NC3=C2C(=O)c2ccccc23)c1 [compound of formula (II)] | particularly effective in protecting the retina | 60.0±12.8 | protected the retina | 50.32±6.30 |
| Cc1cc2[nH]ncc2cc1-c1ccccc1C(F)(F)F [compound of formula (III)] | particularly effective in protecting the retina | 96.8±20.0 | protected the retina | 62.10±7.55 |
| C[C@H]1[C@H](F)C[C@@H](C(=O)NCc2cc(-c3cnc(C(F)(F)F)nc3)ncc2C(F)(F)F)N1S(=O)(=O)c1ccc(F)cc1 [compound of formula (IV)] | particularly effective in protecting the retina | 84.5±33 | protected the retina | 64.16±17.51 |
